From US7235366B1 (priority 1993, dated 2007)
Where two headings read alike, the source gives them in different places. Residues, ends and D or L forms follow the SMILES beside them.

Key:
cloned rat μ receptor = biological target: T1, cloned rat μ receptor (Rattus norvegicus, UniProt P33535); experiment: biochemical; assay type: binding
T1 construct: expressed in transfected cells; host or cells: COS-7 (transient)

cloned mouse κ receptor = biological target: T2, cloned mouse κ receptor (Mus musculus, UniProt P33534); experiment: biochemical; assay type: binding
T2 construct: expressed in transfected cells

cloned mouse δ receptor = biological target: T3, cloned mouse δ receptor (Mus musculus, UniProt P32300); experiment: biochemical; assay type: binding
T3 construct: expressed in transfected cells

MOP2 = biological target: T4, MOP2 (Mus musculus, UniProt P35377); assay type: cell-based
T4 construct: expressed in transfected cells; host or cells: COS-7 (transient)

[1] = biological target: T5, wild-type mouse delta opioid receptor (Mus musculus, UniProt P32300); experiment: biochemical; assay type: binding
T5 construct: expressed in transfected cells; host or cells: COS-7 (transient, pCMV6c)

[2] = biological target: κ1-78/δ70-372 chimeric receptor (Mus musculus, UniProt P32300+P33534, A193I/A281G/D128E/D204G/D206V/DEL208-209/DEL216-217/DEL300-312/E203D/E218S/E297A/F225V/F314L/G197A/G198V/I133A/I135L/I177L/I191V/I194M/I237V/I243T/I250L/I284V/I285V/I294L/I85V/INS221Y/INS293VIVWTLVDINRRDP/K200Q/K254R/K274R/L173A/L184V/L196M/L224T/L275M/L295V/M112L/M226T/M90L/N122E/N268S/R263K/S123T/S188G/S192P/S211M/T110S/T247G/T288A/T321A/V108A/V118K/V129L/V201P/V205A/V232L/V239I/V282A/V83G/Y219P/Y313H); experiment: biochemical
[3] = biological target: T6, H278N mutant mouse delta opioid receptor (Mus musculus, UniProt P32300, H278N); experiment: biochemical; assay type: binding
T6 construct: expressed in transfected cells; host or cells: COS-7 (transient, pCMV6c)

[4] = biological target: T7, mouse delta opioid receptor aspartate 95 to asparagine mutant (Mus musculus, UniProt P32300, D95N); experiment: Binding to delta receptor mutant with aspartate 95 converted to asparagine, COS-7 cells
T7 construct: expressed in transfected cells; host or cells: COS-7

[5] = biological target: T8, D128N mutant mouse delta opioid receptor (Mus musculus, UniProt P32300, D128N); experiment: biochemical; assay type: binding
T8 construct: expressed in transfected cells; host or cells: COS-7 (transient, pCMV6c)

[6] = biological target: T9, cloned human μ opioid receptor (Homo sapiens, UniProt P35372); assay type: binding
T9 construct: This fragment includes the entire coding region of the human μ opioid receptor; expressed in transfected cells; host or cells: COS-7 (transient, pcDNA3)

κ/δ2eloop chimera = assay type: binding
[7] = biological target: T10, cloned rat μ opioid receptor (Rattus norvegicus, UniProt P33535); assay type: binding
T10 construct: expressed in transfected cells; host or cells: COS-7 (transient)

[8] = read-out: Binding potencies (Ki-nM) μ RECEPTOR [^3H] DAMGO
[9] = read-out: Binding potencies (Ki-nM) κ RECEPTOR [^3H] U-69, 593
[10] = read-out: Binding potencies (Ki-nM) δ RECEPTOR [^3H] naltrindole

T2 sequence (P33534 whole entry): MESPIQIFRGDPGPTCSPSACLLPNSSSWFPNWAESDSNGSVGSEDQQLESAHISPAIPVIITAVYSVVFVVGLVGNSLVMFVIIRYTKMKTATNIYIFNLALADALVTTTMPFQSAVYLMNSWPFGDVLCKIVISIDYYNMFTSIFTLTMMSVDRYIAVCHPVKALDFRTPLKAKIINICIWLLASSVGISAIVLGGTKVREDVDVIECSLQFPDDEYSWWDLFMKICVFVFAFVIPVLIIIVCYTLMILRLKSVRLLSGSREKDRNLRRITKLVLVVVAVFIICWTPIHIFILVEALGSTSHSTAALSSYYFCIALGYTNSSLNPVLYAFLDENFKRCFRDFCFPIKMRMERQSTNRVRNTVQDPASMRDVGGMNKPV
T4 sequence (P35377 whole entry): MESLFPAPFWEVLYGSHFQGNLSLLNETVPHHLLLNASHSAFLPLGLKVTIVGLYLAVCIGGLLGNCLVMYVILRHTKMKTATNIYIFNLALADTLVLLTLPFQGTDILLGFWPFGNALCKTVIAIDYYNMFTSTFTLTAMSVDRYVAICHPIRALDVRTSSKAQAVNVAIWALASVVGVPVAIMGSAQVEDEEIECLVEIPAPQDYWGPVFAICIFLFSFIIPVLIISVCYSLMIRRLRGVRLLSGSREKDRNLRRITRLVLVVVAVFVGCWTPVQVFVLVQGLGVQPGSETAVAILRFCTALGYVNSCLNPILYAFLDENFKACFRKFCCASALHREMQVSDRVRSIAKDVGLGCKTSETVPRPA
T1 sequence (P33535 whole entry): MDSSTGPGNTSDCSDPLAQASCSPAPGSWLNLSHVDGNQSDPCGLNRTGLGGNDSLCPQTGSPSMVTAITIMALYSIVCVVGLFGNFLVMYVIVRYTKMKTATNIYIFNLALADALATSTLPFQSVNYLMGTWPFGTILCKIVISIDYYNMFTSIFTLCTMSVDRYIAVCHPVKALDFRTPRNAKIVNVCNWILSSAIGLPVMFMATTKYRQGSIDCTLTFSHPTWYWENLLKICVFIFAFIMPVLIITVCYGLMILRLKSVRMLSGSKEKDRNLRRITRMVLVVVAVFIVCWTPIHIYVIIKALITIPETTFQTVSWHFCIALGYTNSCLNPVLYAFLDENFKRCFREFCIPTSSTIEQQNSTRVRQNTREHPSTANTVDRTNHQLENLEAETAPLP
T3 sequence (P32300 whole entry): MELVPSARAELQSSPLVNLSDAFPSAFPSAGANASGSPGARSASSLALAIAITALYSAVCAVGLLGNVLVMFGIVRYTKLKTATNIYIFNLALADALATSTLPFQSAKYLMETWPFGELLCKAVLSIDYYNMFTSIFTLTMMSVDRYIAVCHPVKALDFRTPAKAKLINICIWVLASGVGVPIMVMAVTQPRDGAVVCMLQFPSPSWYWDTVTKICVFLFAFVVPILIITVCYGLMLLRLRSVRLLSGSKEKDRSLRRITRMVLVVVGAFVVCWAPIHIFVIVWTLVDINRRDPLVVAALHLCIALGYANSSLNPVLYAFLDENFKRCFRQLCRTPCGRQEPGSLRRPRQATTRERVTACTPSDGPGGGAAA
T9 sequence (P35372 whole entry, the tested form may be a part): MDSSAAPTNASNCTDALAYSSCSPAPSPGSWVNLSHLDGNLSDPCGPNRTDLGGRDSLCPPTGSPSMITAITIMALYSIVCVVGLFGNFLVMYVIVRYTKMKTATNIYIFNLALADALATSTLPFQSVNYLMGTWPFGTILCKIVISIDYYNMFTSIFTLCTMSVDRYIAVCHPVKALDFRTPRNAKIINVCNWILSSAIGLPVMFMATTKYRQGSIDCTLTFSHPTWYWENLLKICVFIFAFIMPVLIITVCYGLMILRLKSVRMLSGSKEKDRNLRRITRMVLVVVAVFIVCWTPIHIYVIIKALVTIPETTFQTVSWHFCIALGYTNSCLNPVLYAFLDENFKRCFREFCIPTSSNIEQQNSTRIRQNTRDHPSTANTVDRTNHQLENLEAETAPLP
T8 sequence (P32300 whole entry D128N): as the sequence (P32300 whole entry) above, with D128N counted along it
Chain of κ1-78/δ70-372 chimeric receptor (P33534+P32300 fused with the stated changes): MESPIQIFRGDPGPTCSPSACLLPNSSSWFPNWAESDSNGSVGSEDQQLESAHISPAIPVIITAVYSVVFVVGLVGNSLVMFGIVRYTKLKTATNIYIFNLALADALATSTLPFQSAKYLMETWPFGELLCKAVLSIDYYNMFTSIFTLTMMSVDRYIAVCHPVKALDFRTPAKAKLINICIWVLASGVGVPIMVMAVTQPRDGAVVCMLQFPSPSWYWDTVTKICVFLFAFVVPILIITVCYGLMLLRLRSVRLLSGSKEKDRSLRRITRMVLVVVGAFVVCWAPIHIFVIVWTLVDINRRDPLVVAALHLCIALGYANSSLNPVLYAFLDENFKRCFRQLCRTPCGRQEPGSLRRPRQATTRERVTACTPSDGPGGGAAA
T10 sequence (P33535 whole entry): as the sequence (P33535 whole entry) above
T6 sequence (P32300 whole entry H278N): as the sequence (P32300 whole entry) above, with H278N counted along it
T5 sequence (P32300 whole entry): as the sequence (P32300 whole entry) above
T7 sequence (P32300 whole entry D95N): as the sequence (P32300 whole entry) above, with D95N counted along it

## CC[C@H](C)[C@H](NC(=O)[C@H](C)NC(=O)[C@H](CC(N)=O)NC(=O)[C@H](CCCCN)NC(=O)[C@H](Cc1ccccc1)NC(=O)[C@H](CC(C)C)NC(=O)[C@@H](NC(=O)[C@@H](NC(=O)[C@H](CC(C)C)NC(=O)[C@@H]1CCCN1C(=O)[C@@H](NC(=O)[C@H](CCC(N)=O)NC(=O)[C@H](CO)NC(=O)[C@H](CCCCN)NC(=O)[C@H](CCC(=O)O)NC(=O)[C@H](CO)NC(=O)[C@@H](NC(=O)[C@H](CCSC)NC(=O)[C@H](Cc1ccccc1)NC(=O)CNC(=O)CN)[C@@H](C)O)[C@@H](C)O)C(C)C)[C@@H](C)O)C(=O)N[C@H](C(=O)N[C@@H](CCCCN)C(=O)N[C@@H](CC(N)=O)C(=O)N[C@@H](C)C(=O)N[C@@H](Cc1ccc(O)cc1)C(=O)N[C@@H](CCCCN)C(=O)N[C@@H](CCCCN)C(=O)NCC(=O)N[C@@H](CCC(=O)O)C(=O)O)[C@@H](C)CC [des-Tyr^1-β-endorphin] (H-GGFMTSEKSQTPLVTLFKNAIIKNAYKKGE-OH; N-terminus and C-terminus assumed)
Cloned rat μ receptor; [8]
  Ki: > 1000 nM
Cloned mouse κ receptor; [9]
  Ki: > 1000 nM
Cloned mouse δ receptor; [10]
  Ki: > 1000 nM

## CCC(=O)C(CC(C)N(C)C)(c1ccccc1)c1ccccc1 (centres unmarked) [methadone]
MOP2
  Effect on forskolin-stimulated cAMP formation, MOP2: no effect

## NC(=O)[C@@H]1CCCN1C(=O)[C@H](Cc1ccccc1)NC(=O)[C@@H]1CCCN1C(=O)[C@@H](N)Cc1ccc(O)cc1 [morphiceptin] (H-YPFP-NH2)
Cloned rat μ receptor; Affinities for the cloned μ receptor
  Ki: 10 to 100 nM
Cloned rat μ receptor; Binding potencies (Ki-nM) μ RECEPTOR [^3H] DAMGO
  Ki: 56 nM
Cloned mouse κ receptor
  Ki: > 1000 nM
Cloned mouse δ receptor
  Ki: > 1000 nM

## CN1CC[C@]23c4c5ccc(O)c4O[C@H]2[C@@H](O)C=C[C@H]3[C@H]1C5 [morphine]
MOP2
  Effect on forskolin-stimulated cAMP formation, MOP2: no effect

## C=CCN1CC[C@]23c4c5ccc(O)c4O[C@H]2[C@@H](O)C=C[C@H]3[C@H]1C5 [nalorphine]
Cloned rat μ receptor
  Ki: 0.97 nM
Cloned mouse κ receptor
  Ki: 1.1 nM

## Oc1ccc2c3c1O[C@H]1c4[nH]c5ccccc5c4C[C@@]4(O)[C@@H](C2)N(CC2CC2)CC[C@]314 [naltrindole]
[1]
  Ki: 1.4 nM
[2]
  IC50: 0.25 nM
[3]
  Ki: 0.5 nM
[4]
  Affinity of aspartate 95 mutant and wild-type delta receptors compared: similar
[5]
  Ki: 5.6 nM
Cloned mouse κ receptor
  Ki: 66 nM

## Oc1ccc2c3c1O[C@H]1c4[nH]c5c(c4C[C@@]4(O)[C@@H](C2)N(CC2CC2)CC[C@]314)C[C@@]1(O)[C@H]2Cc3ccc(O)c4c3[C@@]1(CCN2CC1CC1)[C@H]5O4 [nor-BNI, nor-binaltorphimine]
Cloned mouse κ receptor
  Ki: 0.027 nM

## CC(C)=CCN1CCC2(C)c3cc(O)ccc3CC1C2C (centres unmarked) [pentazocine]
Cloned rat μ receptor
  Ki: 5.7 nM
Cloned mouse δ receptor
  Ki: 31 nM

## COC(=O)/C=C/C(=O)N[C@@H]1CC[C@@]2(O)[C@H]3Cc4ccc(O)c5c4[C@@]2(CCN3CC2CC2)[C@H]1O5 [β-FNA, β-funaltrexamine]
[6]; read-out: Binding potencies (Ki-nM) for the cloned human μ opioid receptor [^3H] DAMGO
  Ki: 0.29 nM
Cloned rat μ receptor; [8]
  Ki: 0.33 nM
Cloned mouse κ receptor; [9]
  Ki: 2.8 nM
Cloned mouse δ receptor; [10]
  Ki: 48 nM

## D-Ala^2-deltorphin II
[6]
  Binding to the cloned human receptor (inhibition of [3H]DAMGO binding), words: did not bind

## Dynorphin A (1–8)
κ/δ2eloop chimera
  Binding to the κ/δ2eloop chimera: did not bind

## Dynorphin A (1–17)
κ/δ2eloop chimera
  Binding to the κ/δ2eloop chimera: did not bind

## pertussis toxin [PTX]
[7]
  Decrease of specific [3H]DAMGO labelling of the rat μ receptor: 42+/−5%

## β-Endorphin (human)
MOP2
  Effect on forskolin-stimulated cAMP formation, MOP2: no effect
